Where two headings read alike, the source gives them in different places. Positions of bridges follow the written chain, without caps; N, C: chain ends. Non-standard residues stand in square brackets, D forms with d. Residues, ends and D or L forms follow the SMILES beside them. Asu = N[C@@H](CCCCCC(=O)O)C(=O)O
Tests used:
[1] = rat, in vivo
[2] = rat, in vivo; remark: listed apart in the source
Experimental: Using normal rats (each 4 rats) which were in the same week old in initiation of administration of elcatonin as in Examples 1 and 2, dose of elcatonin not varying serum calcium value was examed in the case of single subcutaneous administration (administered over 10 seconds). […] Further, the same test was conducted excepting that blood collection was carried out 30 minutes after the administration. Measurement of serum calcium value was conducted using calcium C-test wako (Wako).

[3] = rat, in vivo; remark: listed apart in the source
[4] = cited from earlier work
[5] = human, in vivo
[6] = test system: chronic constriction injury model (CCI model); assay: CCI model, Randall Selitto method, intravenous continuous drip; format: in vivo, rat; details: neuropathic pain; after effect once manifested
Experimental: Preparing of the CCI model and elcatonin administration initiation period were the same as in Example 1. A cannulation was performed on cervical vein, and on 2nd day after cannulation, elcatonin (0.75 U/kg/week) was administered by intravenous continuous drip at 1 mL/body/24 hours, and withdrawal pressure by Randall Slitto method was measured 4, 8, 12 and 24 hours after.

[7] = Blood retention time after intermittent administration; format: in vivo
Experimental: From Comparative Example 1 described later, it has been considered that an analgesic action by intermittent administration of calcitonin is affected by accumulation of an effect in each administration. The blood retention time by intermittent administration is about 2 hours. Therefore, also included in the range of the present invention is an administration method in which continuous administration of 2 hours or more and less than 8 hours is repeated and accumulated duration of continuous administration within 24 hours is 8 hours or more.

Row | Molecule | body weight [1] | body weight increase [1] | serum calcium at effective dose on neuropathic pain in intermittent administration [2] | serum calcium value relative to normal value ([2]; sc) | serum calcium concentration [3] | serum calcium ([4]; bone metastasis cancer patient, s.c. 400 U/man/day mixed into morphine continuous administration) | serum calcium ([4]; renal osteopathy patient, drip intravenous 40 U/man/5 hours) | calcitonin dose altering serum calcium values in humans [5] [mU/kg/second] | continuation of analgesic effect during the drug withdrawal period [6] | blood retention time [7]
1 | CC(C)C[C@H](NC(=O)[C@H](CCCCN)NC(=O)CNC(=O)[C@H](CC(C)C)NC(=O)[C@@H](NC(=O)[C@@H]1CCCCCC(=O)N[C@@H](CO)C(=O)N[C@@H](CC(N)=O)C(=O)N[C@@H](CC(C)C)C(=O)N[C@@H](CO)C(=O)N[C@@H]([C@@H](C)O)C(=O)N1)C(C)C)C(=O)N[C@@H](CO)C(=O)N[C@@H](CCC(N)=O)C(=O)N[C@@H](CCC(=O)O)C(=O)N[C@@H](CC(C)C)C(=O)N[C@@H](Cc1c[nH]cn1)C(=O)N[C@@H](CCCCN)C(=O)N[C@@H](CC(C)C)C(=O)N[C@@H](CCC(N)=O)C(=O)N[C@H](C(=O)N[C@@H](Cc1ccc(O)cc1)C(=O)N1CCC[C@H]1C(=O)N[C@@H](CCCNC(=N)N)C(=O)N[C@H](C(=O)N[C@@H](CC(=O)O)C(=O)N[C@H](C(=O)NCC(=O)N[C@@H](C)C(=O)NCC(=O)N[C@H](C(=O)N1CCC[C@H]1C(N)=O)[C@@H](C)O)C(C)C)[C@@H](C)O)[C@@H](C)O [elcatonin, 1-butylic acid-7-(L-2-aminobutylic acid)-26-L-aspartic acid-27-L-valine-29-L-alaninecalcitonin] (SNLST[Asu]VLGKLSQELHKLQTYPRTDVGAGTP-NH2; lactam N-6) | no change in body weight was found | suppression of body weight increase became remarkable | lowered to normal value (8.5 to 10.5 mg/dl) or less | below a normal value | did not affect serum calcium amount at all | – | – | – | – | –
2 | calcitonin | – | – | – | – | – | a significant decrease in serum calcium is recognized | no significant decrease in serum calcium is recognized | 0.093 | continues for at least one week | about 2 hours
